In assay [1] the test system is mice. The experiment in a line: Tail-flick Test. The assay is classed as in vivo. The following applies: mouse. The source says:
Common mouse models for pain include the Formalin Test (Wheeler-Aceto, et al., Psychopharmacology, 104, 35-44, 1991), the Hot Plate Test (Eddy and Leimbach, J. Pharmacol. Exp. Ther., 107, 385-393, 1953), and the Tail-flick Test (D'Amour and Smith, J. Pharmacol. Exp. Ther., 1, 74-79, 1941). These methods detect analgesic activity of compositions of interest. In the Formalin Test, mice are given an intraplantar injection of 5% formalin into one posterior hindpaw to induce paw licking. Test compositions are given to the mice before treatment with formalin and the mice are evaluated and compared to a control group. In the Hot Plate Test, mice are placed onto a hot metal plate maintained at 54° C. and the latency to the first foot-lick is measured. As with the Formalin test, compositions of interest are given to the mice before the test and the mice are evaluated and compared to a control group. In the Tail-flick Test, a mouse's tail is heated by means of a thermal light source, and the latency before the animal withdraws its tail is measured. Test compositions are administered before the test, and compared with a vehicle control group. The analgesic activity of the compositions described herein can be identified using the mouse formalin, hot plate, and tail-flick tests.
A method for detecting analgesic activity followed that described by D'Amour and Smith (J. Pharmacol. Exp. Ther., 1, 74-79, 1941). The mouse's tail was heated by means of a thermal light source (20 volts). The latency before the animal withdraws its tail was measured (maximum: 15 seconds).
Ten mice were studied per group. The test was performed partially blind.
The test substances selected from (R)-isometheptene mucate, and (S)-isometheptene mucate were evaluated at three doses ([…]), administered p.o. 15 minutes before the test, and compared with a vehicle control group. […]
Data with the test substance were analyzed by comparing treated groups with vehicle control using ANOVA followed by post-hoc Dunnett's tests. Data with the reference substance were analyzed using unpaired Student's t tests.
In general terms: Thermal pain tests record how soon the animal reacts.

Assay [2] concerns Spontaneous trigeminal allodynia (STA) rats. In words: Tactile sensory testing with von Frey monofilaments in STA rats. The assay is classed as in vivo, rat. As to conditions: injected, versus (S)-isometheptene mucate treated or control rats. The source says: Pain, headaches, and migraines have been modeled in animals such as mice and rats. For example, Oshinsky et al. (Oshinsky, M. L., et al., Spontaneous Trigeminal Allodynia in Rats: A Model of Primary Headache, 2012, 52: 1336-1349) describes spontaneous trigeminal allodynia (STA) rats with the inherited trait of spontaneously changing trigeminal von Frey thresholds. These rats are a model of spontaneous headache and can be used as a model of primary headache. Through a series of tactile sensory tests, the periorbital, hind-paw, and jaw-pressure thresholds for STA rats are determined by applying von Frey monofilaments. […] Analgesic activity of the compositions described herein can be evaluated by determining trigeminal von Frey thresholds in STA rats. […]
STA rats and litter mates without the trait were injected with compounds selected from (R)-isometheptene mucate and (5)-isometheptene mucate on days when their thresholds in spontaneous allodynia rats were 4 g or below for STA rats. […] Tactile sensory thresholds were recorded prior to and following injections at 0.5 hours, 1.5 hours, 2.5 hours, 3.5 hours, and 24 hours. […]
Periorbital, hind-paw, and jaw-pressure thresholds were determined by applying von Frey monofilaments (Stoelting Co., Wood Dale, Ill., USA). […] Left and right threshold data were recorded separately. […]

Structures are written as SMILES.

In the case of `CN[C@H](C)CCC=C(C)C` [(R)-isometheptene mucate], the “Tail-flick activity relative to morphine” value in assay [1] (100 mg/kg p.o. versus morphine 32 mg/kg) is on record as “activity similar to that of morphine”. For the same molecule, the “Tail flick latency compared to vehicle” value in assay [1] (thermal light source, three doses (10, 30, 100) p.o. 15 minutes before the test) is reported as “longer tail flick latency times”. Also, in assay [2], the “Tactile sensory (von Frey) threshold values” is on record as “dramatic increase in threshold values”.

For the origin of these results see patent publication US20150258197A1, “EUTECTIC ISOMETHEPTENE MUCATE” (TONIX PHARMA HOLDINGS LIMITED, priority 2014, published 2015).
